The supplement of paper PMC11451515

What was measured:
Conditions in all cases: 48 h
NOMO1 [1] = test: cell viability relative to DMSO control; higher = less cytotoxic
In short: (§1)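 NOMO1, SEM and P12-Ichikawa leukemia cells spent at least four passages adapting to each medium before use. They were seeded at 500 cells/well (NOMO1, SEM) or 1000 cells/well (P12-Ichikawa) in 5 μl in 1536-well plates and pin-dosed with library compounds in DMSO at 11 threefold steps from 47 μM down to 0.79 nM. After 48 h at 37°C, CellTiter-Glo One luminescence was read. Viability is reported as a percentage of the DMSO wells on each plate, with cell-free wells as background.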

P12-Ichikawa [2] = test: as above
In short: as §1

SEM cells [3] = test: as above
In short: as §1

NOMO1 [4] = test: AUC of viability dose-response curve (% viability x log10 dose units); higher = less sensitive
In short: (§2)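 Over 48 h at 37°C, leukemia cells in 1536-well plates (500 or 1000 cells/well), adapted to each medium, received library compounds in DMSO at 11 threefold doses from 47 μM to 0.79 nM. CellTiter-Glo One luminescence, normalised per plate to DMSO and cell-free wells, was fitted by a four-parameter log-logistic function of log10 dose. The area under the curve was then integrated by trapezoidal rule, after scaling curves above full viability and removing those that failed quality control.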

P12-Ichikawa [5] = test: as above
In short: as §2

SEM cells [6] = test: as above
In short: as §2

O=C(O)Cc1cccc(OCCCN(Cc2cccc(C(F)(F)F)c2Cl)CC(c2ccccc2)c2ccccc2)c1
cell viability [%]
Conditions | NOMO1 [1] | P12-Ichikawa [2] | SEM cells [3]
HPLM + 10% dialyzed FBS, 0.000781 µM | 122 | 117 | 109
HPLM + 10% dialyzed FBS, 0.00234 µM | 123 | 115 | 118
HPLM + 10% dialyzed FBS, 0.00702 µM | 136 | 116 | 109
HPLM + 10% dialyzed FBS, 0.0211 µM | 110 | 121 | 97.8
HPLM + 10% dialyzed FBS, 0.0632 µM | 114 | 119 | 113
HPLM + 10% dialyzed FBS, 0.19 µM | 108 | 115 | 102
HPLM + 10% dialyzed FBS, 0.569 µM | 118 | 116 | 110
HPLM + 10% dialyzed FBS, 1.71 µM | 99.3 | 108 | 100
HPLM + 10% dialyzed FBS, 5.12 µM | 106 | 108 | 93.5
HPLM + 10% dialyzed FBS, 15.4 µM | 118 | 102 | 103
HPLM + 10% dialyzed FBS, 46.1 µM | 114 | 108 | 94.5
RPMI 5 mM glucose + 10% FBS, 0.000781 µM | – | – | 98.3
RPMI 5 mM glucose + 10% FBS, 0.00234 µM | – | – | 93.6
RPMI 5 mM glucose + 10% FBS, 0.00702 µM | – | – | 95.1
RPMI 5 mM glucose + 10% FBS, 0.0211 µM | – | – | 101
RPMI 5 mM glucose + 10% FBS, 0.0632 µM | – | – | 86.3
RPMI 5 mM glucose + 10% FBS, 0.19 µM | – | – | 84.5
RPMI 5 mM glucose + 10% FBS, 0.569 µM | – | – | 92
RPMI 5 mM glucose + 10% FBS, 1.71 µM | – | – | 89.5
RPMI 5 mM glucose + 10% FBS, 5.12 µM | – | – | 87.3
RPMI 5 mM glucose + 10% FBS, 15.4 µM | – | – | 84.8
RPMI 5 mM glucose + 10% FBS, 46.1 µM | – | – | 96.4
RPMI 5 mM glucose + 10% dialyzed FBS, 0.000781 µM | – | 119 | 111
RPMI 5 mM glucose + 10% dialyzed FBS, 0.00234 µM | – | 119 | 111
RPMI 5 mM glucose + 10% dialyzed FBS, 0.00702 µM | – | 119 | 109
RPMI 5 mM glucose + 10% dialyzed FBS, 0.0211 µM | – | 124 | 135
RPMI 5 mM glucose + 10% dialyzed FBS, 0.0632 µM | – | 124 | 119
RPMI 5 mM glucose + 10% dialyzed FBS, 0.19 µM | – | 122 | 113
RPMI 5 mM glucose + 10% dialyzed FBS, 0.569 µM | – | 118 | 126
RPMI 5 mM glucose + 10% dialyzed FBS, 1.71 µM | – | 101 | 103
RPMI 5 mM glucose + 10% dialyzed FBS, 5.12 µM | – | 108 | 96.1
RPMI 5 mM glucose + 10% dialyzed FBS, 15.4 µM | – | 98.8 | 99.2
RPMI 5 mM glucose + 10% dialyzed FBS, 46.1 µM | – | 103 | 111

AUC of viability dose-response curve
Conditions | NOMO1 [4] | P12-Ichikawa [5] | SEM cells [6]
HPLM + 10% dialyzed FBS | 432 | 460 | 444
RPMI 5 mM glucose + 10% FBS | 461 | 442 | 437
RPMI 5 mM glucose + 10% dialyzed FBS | 465 | 450 | 456

CN1CCC(CC1)=C2C3=C(C=CC=C3)\C=C/C4=C2C=CC=C4
cell viability [%]
Conditions | NOMO1 [1] | P12-Ichikawa [2] | SEM cells [3]
HPLM + 10% dialyzed FBS, 0.000781 µM | 98.6 | 106 | 102
HPLM + 10% dialyzed FBS, 0.00234 µM | 118 | 125 | 109
HPLM + 10% dialyzed FBS, 0.00702 µM | 113 | 117 | 120
HPLM + 10% dialyzed FBS, 0.0211 µM | 130 | 130 | 121
HPLM + 10% dialyzed FBS, 0.0632 µM | 133 | 122 | 125
HPLM + 10% dialyzed FBS, 0.19 µM | 141 | 122 | 126
HPLM + 10% dialyzed FBS, 0.569 µM | 147 | 126 | 123
HPLM + 10% dialyzed FBS, 1.71 µM | 133 | 133 | 112
HPLM + 10% dialyzed FBS, 5.12 µM | 121 | 128 | 131
HPLM + 10% dialyzed FBS, 15.4 µM | 124 | 118 | 105
HPLM + 10% dialyzed FBS, 46.1 µM | 93.4 | 108 | 103
RPMI 5 mM glucose + 10% FBS, 0.000781 µM | – | – | 118
RPMI 5 mM glucose + 10% FBS, 0.00234 µM | – | – | 121
RPMI 5 mM glucose + 10% FBS, 0.00702 µM | – | – | 126
RPMI 5 mM glucose + 10% FBS, 0.0211 µM | – | – | 115
RPMI 5 mM glucose + 10% FBS, 0.0632 µM | – | – | 125
RPMI 5 mM glucose + 10% FBS, 0.19 µM | – | – | 135
RPMI 5 mM glucose + 10% FBS, 0.569 µM | – | – | 139
RPMI 5 mM glucose + 10% FBS, 1.71 µM | – | – | 138
RPMI 5 mM glucose + 10% FBS, 5.12 µM | – | – | 130
RPMI 5 mM glucose + 10% FBS, 15.4 µM | – | – | 113
RPMI 5 mM glucose + 10% FBS, 46.1 µM | – | – | 101
RPMI 5 mM glucose + 10% dialyzed FBS, 0.000781 µM | – | – | 101
RPMI 5 mM glucose + 10% dialyzed FBS, 0.00234 µM | – | – | 109
RPMI 5 mM glucose + 10% dialyzed FBS, 0.00702 µM | – | – | 117
RPMI 5 mM glucose + 10% dialyzed FBS, 0.0211 µM | – | – | 117
RPMI 5 mM glucose + 10% dialyzed FBS, 0.0632 µM | – | – | 133
RPMI 5 mM glucose + 10% dialyzed FBS, 0.19 µM | – | – | 134
RPMI 5 mM glucose + 10% dialyzed FBS, 0.569 µM | – | – | 130
RPMI 5 mM glucose + 10% dialyzed FBS, 1.71 µM | – | – | 104
RPMI 5 mM glucose + 10% dialyzed FBS, 5.12 µM | – | – | 119
RPMI 5 mM glucose + 10% dialyzed FBS, 15.4 µM | – | – | 112
RPMI 5 mM glucose + 10% dialyzed FBS, 46.1 µM | – | – | 86.7

AUC of viability dose-response curve
Conditions | NOMO1 [4] | P12-Ichikawa [5] | SEM cells [6]
HPLM + 10% dialyzed FBS | 470 | 473 | 469
RPMI 5 mM glucose + 10% FBS | 467 | 467 | 467
RPMI 5 mM glucose + 10% dialyzed FBS | 468 | 477 | 468

COC(=O)C/1=C(C)/N/C(=C(\C1C2=CC(=CC=C2)[N+]([O-])=O)C(=O)OCCCN3CCC(CC3)(C4=CC=CC=C4)C5=CC=CC=C5)C (configuration not stated)
cell viability [%]
Conditions | NOMO1 [1] | P12-Ichikawa [2] | SEM cells [3]
HPLM + 10% dialyzed FBS, 0.000781 µM | 117 | 109 | 113
HPLM + 10% dialyzed FBS, 0.00234 µM | 114 | 101 | 94.1
HPLM + 10% dialyzed FBS, 0.00702 µM | 104 | 104 | 114
HPLM + 10% dialyzed FBS, 0.0211 µM | 104 | 101 | 42
HPLM + 10% dialyzed FBS, 0.0632 µM | 108 | 106 | 95.5
HPLM + 10% dialyzed FBS, 0.19 µM | 114 | 101 | 104
HPLM + 10% dialyzed FBS, 0.569 µM | 107 | 96.1 | 100
HPLM + 10% dialyzed FBS, 1.71 µM | 107 | 107 | 109
HPLM + 10% dialyzed FBS, 5.12 µM | 100 | 97.3 | 90.3
HPLM + 10% dialyzed FBS, 15.4 µM | 102 | 92.6 | 94.8
HPLM + 10% dialyzed FBS, 46.1 µM | 87.1 | 95 | 98.6
RPMI 5 mM glucose + 10% FBS, 0.000781 µM | 101 | 107 | 93.4
RPMI 5 mM glucose + 10% FBS, 0.00234 µM | 99.2 | 103 | 97.7
RPMI 5 mM glucose + 10% FBS, 0.00702 µM | 93 | 107 | 98.2
RPMI 5 mM glucose + 10% FBS, 0.0211 µM | 92.4 | 81.4 | 39.7
RPMI 5 mM glucose + 10% FBS, 0.0632 µM | 97.7 | 95.7 | 90.3
RPMI 5 mM glucose + 10% FBS, 0.19 µM | 93.5 | 95.3 | 97.8
RPMI 5 mM glucose + 10% FBS, 0.569 µM | 88.3 | 98.4 | 98
RPMI 5 mM glucose + 10% FBS, 1.71 µM | 90.7 | 89.6 | 95.7
RPMI 5 mM glucose + 10% FBS, 5.12 µM | 83.3 | 89.6 | 104
RPMI 5 mM glucose + 10% FBS, 15.4 µM | 95.3 | 92.4 | 106
RPMI 5 mM glucose + 10% FBS, 46.1 µM | 81.8 | 93 | 91.1
RPMI 5 mM glucose + 10% dialyzed FBS, 0.000781 µM | 107 | 103 | 100
RPMI 5 mM glucose + 10% dialyzed FBS, 0.00234 µM | 93.8 | 102 | 92.3
RPMI 5 mM glucose + 10% dialyzed FBS, 0.00702 µM | 95.5 | 99.3 | 100
RPMI 5 mM glucose + 10% dialyzed FBS, 0.0211 µM | 97.1 | 88.3 | 43.2
RPMI 5 mM glucose + 10% dialyzed FBS, 0.0632 µM | 107 | 98.8 | 97.2
RPMI 5 mM glucose + 10% dialyzed FBS, 0.19 µM | 109 | 95 | 95.6
RPMI 5 mM glucose + 10% dialyzed FBS, 0.569 µM | 101 | 91.4 | 101
RPMI 5 mM glucose + 10% dialyzed FBS, 1.71 µM | 94.4 | 94.9 | 112
RPMI 5 mM glucose + 10% dialyzed FBS, 5.12 µM | 91.2 | 94 | 96.5
RPMI 5 mM glucose + 10% dialyzed FBS, 15.4 µM | 90.5 | 94.4 | 100
RPMI 5 mM glucose + 10% dialyzed FBS, 46.1 µM | 98.7 | 94.6 | 102

AUC of viability dose-response curve
Conditions | NOMO1 [4] | P12-Ichikawa [5] | SEM cells [6]
HPLM + 10% dialyzed FBS | 439 | 453 | 458
RPMI 5 mM glucose + 10% FBS | 441 | 429 | 439
RPMI 5 mM glucose + 10% dialyzed FBS | 464 | 445 | 441
